Experimental findings from US20220081387A1, “METHODS FOR PREPARING AMMONIUM TETRATHIOMOLYBDATE” (Alexion Pharmaceuticals, Inc., priority 2019, published 2022) are described below.

Data set [1] can be described thus: Long-term stability study of ATTM samples, determined by HPLC. It counts as physicochemical. Conditions: after 6 months, by HPLC. Here is the method:
ATTM Samples 1 and 2 were prepared essentially according to procedure in Example 1 starting with 12 kg of ammonium heptamolybdate. The isolated product was packed and stored immediately. Specifically, the samples were packaged corresponding to the packaging of the bulk material under argon in transparent anti-static polyethylene plastic bags, 90 10 10, 110 mm×170 mm, and the bags containing the samples were sealed with a plastic tie, and then subsequently packed in welded aluminium bags along with a drying agent in-between the two bags. Additional samples were packaged with ambient atmosphere in transparent anti-static polyethylene plastic bags, 90 10 10, 110 mm×170 mm. The bags containing the samples were sealed with a plastic tie, and then subsequently packed in welded aluminium bags along with a drying agent in-between the two bags.

Data set [2] is described as follows: ATTM solubility in sample solution (HPLC), methanol, ethanol and purified water. It counts as physicochemical. The following applies: ethanol, purified water. Here is the method:
The ATTM solubility was measured in sample solution (HPLC), methanol, ethanol and purified water.

Regarding `[NH4+].[NH4+].[SH-].[SH-].[S]=[Mo]=[S]` [ATTM, Ammonium tetrathiomolybdate], in data set [1], the “degradation of ATTM on storage” value is given as “no significant degradation”. Moreover, the ATTM solubility result in data set [2] was “lowest in alcohols, particularly in ethanol, and higher in water”.
